Laboratory results from patent US8106004B2, “Methods of inhibiting tumor cell aggressiveness using the microenvironment of human embryonic stem cells” (Children's Memorial Hospital, priority 2006, dated 2012).

Test system: C8161 human cutaneous melanoma cells
Test: In vivo tumor formation, orthotopic mouse model, C8161 melanoma cells
Settings: for tumorigenicity / tumor formation: 250,000 C8161 cells treated with Morpholino before subcutaneous injection, n=5, p<0.05
Procedure: A microenvironment of human embryonic stem cells (H9 CMTX) was prepared as described above. C8161 human cutaneous melanoma cells were exposed to the H9 CMTX or Matrigel for 3 to 4 days prior to transplantation in a mouse model. Nude immunocompromised mice received an injection of the C8161 cells subcutaneously into the midscapular region (to mimic spontaneous metastatic dissemination found in human cancers). The animals were injected using a 25 or 27-gauge needle with 2.5×10^5 tumor cells/mouse in 0.05 ml RPMI media.
As a corollary to these findings, an orthotopic mouse model was used to examine the effect of Nodal inhibition on melanoma tumor formation. For the experimental tumourigenesis model, 5 week old nude mice (Harlan, Madison, Wis.) were injected subcutaneously with 250,000 C8161 cells, treated with control or anti-Nodal Morpholinos, in 50 μL of complete RPMI. Tumor measurements were taken on days 3, 7, 14 and 17 post-injection, and mice were sacrificed on day 17. For the orthotopic mouse tumor formation studies, statistical significance was determined using the Kruskal-Wallis One Way Analysis of Variance on Ranks, followed by Dunn's method.
The derivation and phenotypic characteristics of the human melanoma cell lines have been previously described. Seftor, et. al., 2002, Clin. Experim. Metastas. 19:233-246; Seftor, et. al., 2005 Cancer Res. 65:10164-10169. The melanoma cell lines are maintained in RPMI 1640 medium (Invitrogen) supplemented with 10% fetal bovine serum (FBS, Gemini Bioproducts) and 0.1% gentamycin sulfate with the exception of C81-61 cells which are maintained in Ham's FIO medium supplemented with 15% FBS, 1X Mito+ (BD Bioscience) and gentamycin sulfate. Normal human melanocytes are purchased (Cascade Biologics) or isolated from neonatal foreskins. Seftor, et. al., 2005. A single cell suspension is prepared, added to plastic flasks for the adherence of melanocytes and the cells propagated in Medium 254 with Human Melanocyte Growth Supplement (Cascade Biologics) including, 100 units/ml penicillin, 100 μg/ml streptomycin, and 250 ng/mL amphotericin B. The human embryonic stem cell lines are cultured as previously described. Thomson, et. al., 1998, Science 282:1145-1147. Briefly, cells are grown in 6-well plates precoated with 0.1% porcine gelatin and containing 1.9×10^5 irradiated mouse embryonic fibroblasts (strain CF-1; ATCC) per well. The cells are maintained in medium containing DMEM/F12 (1:1), 20% knock-out serum replacement, non-essential minimal amino acids, L-glutamine (Invitrogen), […], and 4 ng/ml FGF-2 (R&D Systems), and are split with collagenase (1 mg/ml) before the colonies begin to overlap. The cultures are determined to be free of mycoplasma contamination using a PCR-based assay (Roche). […]

[1] = 250,000 C8161 cells treated with anti-Nodal Morpholino before injection

For “MO^Nodal: FITC-conjugated anti-sense Morpholino to Nodal, 5′-AAGCAGCACCTCCAGCCCTTATATC-3′ [SEQ ID NO: 20] (all phosphorodiamidate morpholino (PMO); FITC conjugated, position not given here)”, the “tumorigenicity / tumor formation” value (listed as MO Nodal) was “reduction in tumor formation”, the “tumorigenicity / tumor formation” value (listed as MONodal) was “significant reduction” and the “diminution of tumor incidence” value [1] was 30%. For the same substance, the tumor growth [1] was “decrease”.
